Results as given in PubChem BioAssay (NCI).
“And” between values parts separate entries of the source, which are not always exact repeats. Identical values can stand only once.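 Step 1: Grow cells in 96-well plates. Step 2: Expose to compound for 48 hours at 5 concentrations. Step 3: Interpolate endpoints linearly; if unreached, use highest concentration. GI50 = concentration required for 50% inhibition of growth. At the TGI there is no net growth.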

What was measured:
Assay in all cases: NCI anticancer screen, dose series, 48 h
RXF 393 renal = tested on: RXF 393 renal
OVCAR-8 ovarian = tested on: OVCAR-8 ovarian
BT-549 breast = tested on: BT-549 breast
U251 CNS = tested on: U251 CNS
SK-MEL-5 melanoma = tested on: SK-MEL-5 melanoma
IGROV1 ovarian = tested on: IGROV1 ovarian
TK-10 renal = tested on: TK-10 renal
RPMI-8226 leukemia = tested on: RPMI-8226 leukemia
NCI-H460 lung = tested on: NCI-H460 lung
SN12C renal = tested on: SN12C renal

SMILES | GI50 (RXF 393 renal) | TGI (RXF 393 renal) | GI50 (OVCAR-8 ovarian) | TGI (OVCAR-8 ovarian) [µM] | GI50 (BT-549 breast) | TGI (BT-549 breast) [µM] | GI50 (U251 CNS) | TGI (U251 CNS) [µM] | GI50 (SK-MEL-5 melanoma) [µM] | TGI (SK-MEL-5 melanoma) | GI50 (IGROV1 ovarian) [µM] | TGI (IGROV1 ovarian) | GI50 (TK-10 renal) [µM] | TGI (TK-10 renal) | GI50 (RPMI-8226 leukemia) | TGI (RPMI-8226 leukemia) | GI50 (NCI-H460 lung) | TGI (NCI-H460 lung) | GI50 (SN12C renal) | TGI (SN12C renal) [µM]
O=[N+]([O-])c1cccc([As]=[As]c2cccc([N+](=O)[O-])c2)c1 (centres undefined) | 89.8 nM | 0.23 µM | 0.141 µM | 0.284 | 0.0765 µM | 0.204 | 103 nM | 0.22 | 0.162 | 0.324 µM | 0.0587 | 0.211 µM | 0.132 | 0.266 µM | 0.0495 µM | 0.18 µM | 0.225 µM | 0.5 µM | 0.11 µM | 0.239
O=C(COc1ccc(/C=C2\Oc3ccccc3C2=O)cc1)Nc1nc2c(s1)CCCC2 | – | – | – | – | 4.44 µM | > 49.8 | 2290 nM | > 100 | 17.4 | > 57.5 µM | 0.0164 | 0.0361 µM | 26.2 | > 87.6 µM | 0.261 µM | 1.12 µM | 30.3 µM | > 100 µM | 4.64 µM | > 92
COc1ccc(C2SC(C)C(=O)N2NC(=O)C(O)c2ccccc2)cc1OC (centres undefined) | > 100000 nM | > 100 µM | > 100 µM | > 100 | > 100 µM | > 100 | > 100000 nM | > 100 | > 100 | > 100 µM | > 100 | > 100 µM | > 100 | > 100 µM | > 100 µM | > 100 µM | > 100 µM | > 100 µM | > 100 µM | > 100
O=C(Nc1cccc(NC(=O)Nc2cc(C(F)(F)F)ccc2Cl)c1)Nc1cc(C(F)(F)F)ccc1Cl | – | – | 2.05 µM | 15.7 | 5.55 µM | 38.4 | 1930 nM | 7.91 | 3.2 | 65.6 µM | 3.52 | 18.8 µM | 2.57 | 11.5 µM | 1.87 µM | 50.7 µM | 2.22 µM | 10.5 µM | 2.56 µM | 23.9
C[CH2][Sn]([CH2]C)([O]C(=O)C(OC(C)=O)c1ccccc1)[O]C(=O)C(OC(C)=O)c1ccccc1 (centres undefined) | 18600 nM | 33.1 µM | > 100 µM | > 100 | 16.1 µM | 29.7 | 37600 nM | > 100 | 68.1 | > 100 µM | > 100 | > 100 µM | 18.8 | 33 µM | 11.2 µM | 36.9 µM | > 100 µM | > 100 µM | > 100 µM | > 100
COc1ccc(/C=C2\S/C(=N/Nc3nc(-c4ccccc4)cs3)NC2=O)cc1OC | – | 52 µM | – | 47.5 | – | 81.3 | – | 87.2 | – | 31.2 µM | – | 44.2 µM | – | 59.4 µM | – | – | – | > 100 µM | – | > 100
O=C(NN1C(=O)CSC12CCCC2)c1[nH]c2ccc(Br)cc2c1-c1ccccc1 | 31200 nM | > 100 µM | 41 µM | > 100 | 93.5 µM | > 100 | 38200 nM | > 100 | 63.9 | > 100 µM | 21.8 | > 100 µM | 80.9 | > 100 µM | 30.2 µM | 86.5 µM | 46.9 µM | > 100 µM | 25.9 µM | 77
COc1ccc(/C=C\c2cc(OC)c(OC)c(OC)c2)cc1OC | – | > 100 µM | 0.275 µM | – | – | > 100 | 97.5 nM | – | 0.0514 | 40.4 µM and 16.8 µM | 0.0537 | 40.4 µM and 21.5 µM | 23.5 | 40.4 µM and > 100 µM | 0.224 µM | 12.4 µM and 15.8 µM | 0.181 µM | 40.4 µM and 16.7 µM | 0.94 µM | –
C[C@]12CC[C@H]3[C@@H](CC[C@]4(O)C[C@@H](O)CC[C@]34/C=N/O)[C@@]1(O)CC[C@@H]2C1=COC(=O)C1 | – | 0.091 µM | – | 0.458 | – | 0.245 | – | – | – | 0.241 µM | – | 2.98 µM | – | 0.454 µM | – | – | – | 0.166 µM | – | 1.24
COc1cccc(-n2ncc3c(N/N=C/c4ccncc4)ncnc32)c1 | 672 nM | > 25 µM | 4.88 µM | > 25 | > 25 µM | > 25 | 1100 nM | > 25 | 0.799 | > 9.75 µM | 7.95 | > 25 µM | 2.75 | > 25 µM | > 25 µM | > 25 µM | 2.57 µM | > 25 µM | 4.95 µM | > 25
C/C=C(\C)C(=O)O[C@H]1C=CC(=O)O[C@@H]1CC[C@H](O)[C@H](C)O | 49500 nM | > 88.7 µM | 52.5 µM | > 100 | 27.3 µM | 71.2 | 55300 nM | > 100 | 25.4 | 75.2 µM | 42 | > 100 µM | 50.6 | > 100 µM | 22.8 µM | 58.7 µM | > 77.3 µM | > 100 µM | 47 µM | > 100
O=C(NC[C@H](O)CO)c1ccncc1Nc1ccc(I)cc1F | 678 nM and 1600 nM | > 10 µM and 29.1 µM | > 10 µM and 37.4 µM | > 100 | > 10 µM and 23.3 µM | > 95 | 1840 nM and 4920 nM | > 100 | 7.7 | > 100 µM | – | > 100 µM | – | > 100 µM | > 10 µM and 28.4 µM | > 100 µM | > 10 µM and 11.8 µM | > 100 µM | > 7.13 µM and 7.74 µM | > 100
O=C(Nc1ccc(Cl)c(Cl)c1)O/N=C\c1c(Cl)ccc([N+](=O)[O-])c1Cl | – | – | 2.62 µM | 8.47 | 2.57 µM | 6.42 | 1680 nM | 3.14 | 2.38 | 8.59 µM | 2.08 | 4.57 µM | – | – | 1.62 µM | 4.3 µM | 2.63 µM | 7.68 µM | 2.59 µM | 8.52
C/C=C(/C)C(=O)O[C@H](C[C@@H](C)[C@H]1CC(c2ccoc2)OC1=O)[C@@]1(C)C(=O)CCC2O[C@]21C (some centres undefined) | – | > 100 µM | – | > 100 | – | > 100 | – | > 100 | – | > 100 µM | – | > 100 µM | – | > 100 µM | – | > 100 µM | – | > 100 µM | – | –
